According to PubChem BioAssay AID248 (DTP/NCI, 2004):
Several values for one entry are separate records, joined by “and”; a condition that tells them apart may be missing. Equal entries are not always repeated. Inconclusive results and toxic doses are left out.

Tested on: L1210 leukemia ip in BDF1 mice, survival T/C
Test: NCI In Vivo Anticancer Drug Screen. Data for tumor model L1210 Leukemia (intraperitoneal) in B6D2F1 (BDF1) mice
Conditions: endpoint: mean survival time, higher = longer survival
Outline: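 In this screen, tumor-bearing mice given compound are compared to those given vehicle, and their survival values are reported as a treated-to-control quotient.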

[1] = dose: 50.0 mg/kg/injection, schedule: Q01DX001 (ip), vehicle: saline
[2] = dose: 100.0 mg/kg/injection, schedule: Q01DX001 (ip), vehicle: saline
[3] = dose: 100.0 mg/kg/injection, schedule: Q01DX009 (ip), vehicle: saline with Tween-80
[4] = dose: 100.0 mg/kg/injection, schedule: Q04DX002 (ip), vehicle: saline with Tween-80
[5] = dose: 100.0 mg/kg/injection, schedule: Q04DX003 (ip), vehicle: saline with Tween-80
[6] = dose: 200.0 mg/kg/injection, schedule: Q04DX002 (ip), vehicle: saline with Tween-80
[7] = dose: 200.0 mg/kg/injection, schedule: Q04DX003 (ip), vehicle: saline with Tween-80
[8] = dose: 400.0 mg/kg/injection, schedule: Q04DX002 (ip), vehicle: saline with Tween-80
[9] = dose: 400.0 mg/kg/injection, schedule: Q04DX003 (ip), vehicle: saline with Tween-80
[10] = dose: 100.0 mg/kg/injection, schedule: Q01DX009 (ip), vehicle: Klucel (hydroxypropylcellulose) (HPC)
[11] = dose: 100.0 mg/kg/injection, schedule: Q04DX003 (ip), vehicle: Klucel (hydroxypropylcellulose) (HPC)
[12] = dose: 200.0 mg/kg/injection, schedule: Q04DX003 (ip), vehicle: Klucel (hydroxypropylcellulose) (HPC)
[13] = dose: 400.0 mg/kg/injection, schedule: Q04DX003 (ip), vehicle: Klucel (hydroxypropylcellulose) (HPC)
[14] = dose: 200.0 mg/kg/injection, schedule: Q01DX009 (ip), vehicle: Klucel (hydroxypropylcellulose) (HPC)
[15] = dose: 400.0 mg/kg/injection, schedule: Q01DX009 (ip), vehicle: Klucel (hydroxypropylcellulose) (HPC)

For `Cc1nnn2ccccc12`, the T/C (dose: 25.0 mg/kg/injection, schedule: Q01DX001 (ip), vehicle: saline) was 96 % of control, the T/C [1] was 100 % of control and the T/C [2] was 100 % of control.

In the case of `CCN=C(NCC)c1ccc(NC(=O)c2ccc(C(=O)Nc3ccc(C(=NCC)NCC)cc3)cc2)cc1`, the T/C (dose: 7.5 mg/kg/injection, schedule: Q01DX010 (oral), vehicle: saline) was 98 % of control, the T/C (dose: 7.5 mg/kg/injection, schedule: Q01DX Z (ip), vehicle: saline) was 204 % of control and the T/C (dose: 15.0 mg/kg/injection, schedule: Q01DX010 (oral), vehicle: saline) was 95 % of control. For the same compound, the T/C (dose: 15.0 mg/kg/injection, schedule: Q01DX Z (ip), vehicle: saline) was 106 % of control and 109 % of control, the T/C (dose: 30.0 mg/kg/injection, schedule: Q01DX010 (oral), vehicle: saline) was 91 % of control and the T/C (dose: 125.0 mg/kg/injection, schedule: Q01DX Z (oral), vehicle: saline) was 98 % of control. For the same compound, the T/C (dose: 125.0 mg/kg/injection, schedule: Q## X010 (oral), vehicle: saline) was 108 % of control, the T/C (dose: 250.0 mg/kg/injection, schedule: Q01DX Z (oral), vehicle: saline) was 96 % of control and the T/C (dose: 250.0 mg/kg/injection, schedule: Q## X010 (oral), vehicle: saline) was 123 % of control. For the same compound, the T/C (dose: 500.0 mg/kg/injection, schedule: Q01DX Z (oral), vehicle: saline) was 109 % of control.

In the case of `CC(C)(C)c1cc([N+](=O)[O-])cc([N+](=O)[O-])c1O`, the T/C (dose: 1.56 mg/kg/injection, schedule: Q01DX009 (ip), vehicle: saline with Tween-80) was 93 % of control, the T/C (dose: 1.56 mg/kg/injection, schedule: Q04DX003 (ip), vehicle: saline with Tween-80) was 100 % of control and the T/C (dose: 3.13 mg/kg/injection, schedule: Q01DX009 (ip), vehicle: saline with Tween-80) was 93 % of control. The T/C (dose: 3.13 mg/kg/injection, schedule: Q04DX003 (ip), vehicle: saline with Tween-80) was 96 % of control, the T/C (dose: 6.25 mg/kg/injection, schedule: Q01DX009 (ip), vehicle: saline with Tween-80) was 96 % of control and the T/C (dose: 6.25 mg/kg/injection, schedule: Q04DX003 (ip), vehicle: saline with Tween-80) was 107 % of control.

For `CC(=O)OC(C)CC[P+](c1ccccc1)(c1ccccc1)c1ccccc1` (stereo not drawn), the T/C (dose: 75.0 mg/kg/injection, schedule: Q01DX001 (ip), vehicle: other) was 104 % of control and the T/C (dose: 150.0 mg/kg/injection, schedule: Q01DX001 (ip), vehicle: other) was 106 % of control.

With `OCCCOc1cccc(Cl)c1` the T/C (dose: 75.0 mg/kg/injection, schedule: Q04DX002 (ip), vehicle: Klucel (hydroxypropylcellulose) (HPC)) was 105 % of control, the T/C (dose: 150.0 mg/kg/injection, schedule: Q04DX002 (ip), vehicle: Klucel (hydroxypropylcellulose) (HPC)) was 108 % of control and the T/C (dose: 300.0 mg/kg/injection, schedule: Q04DX002 (ip), vehicle: Klucel (hydroxypropylcellulose) (HPC)) was 105 % of control.

`Cc1c(Cl)cccc1NC(=O)N1CCCC(C)C1` (stereo not drawn) was tested, and the T/C [3] was 94 % of control and 90 % of control, the T/C [4] was 96 % of control and 89 % of control and the T/C [5] was 96 % of control. The T/C (dose: 200.0 mg/kg/injection, schedule: Q01DX009 (ip), vehicle: saline with Tween-80) was 90 % of control, the T/C [6] was 86 % of control and 89 % of control and the T/C [7] was 102 % of control. For the same compound, the T/C (dose: 400.0 mg/kg/injection, schedule: Q01DX009 (ip), vehicle: saline with Tween-80) was 93 % of control and 95 % of control, the T/C [8] was 93 % of control and 89 % of control and the T/C [9] was 97 % of control.

With `COc1ccc(C2OCC(c3ccccc3)O2)cc1` (stereo not drawn) the T/C (dose: 222.0 mg/kg/injection, schedule: Q01DX Z (ip), vehicle: methylcellulose (MC)) was 93 % of control and the T/C (dose: 500.0 mg/kg/injection, schedule: Q01DX Z (ip), vehicle: methylcellulose (MC)) was 93 % of control.

For `CCOC(=O)C(C)(c1[nH]c2ccccc2c1C)c1[nH]c2ccccc2c1C`, the T/C [1] was 103 % of control, the T/C [2] was 103 % of control and the T/C (dose: 200.0 mg/kg/injection, schedule: Q01DX001 (ip), vehicle: saline) was 95 % of control. The T/C (dose: 400.0 mg/kg/injection, schedule: Q01DX001 (ip), vehicle: saline) was 89 % of control.

With `O=C1OC(CN2CCOCC2)CN1/N=C/c1ccc([N+](=O)[O-])o1` (stereo not drawn) the T/C (dose: 25.0 mg/kg/injection, schedule: Q01DX009 (ip), vehicle: Klucel (hydroxypropylcellulose) (HPC)) was 104 % of control, the T/C (dose: 50.0 mg/kg/injection, schedule: Q01DX009 (ip), vehicle: Klucel (hydroxypropylcellulose) (HPC)) was 92 % of control and the T/C (dose: 100.0 mg/kg/injection, schedule: Q01DX001 (ip), vehicle: saline with Tween-80) was 97 % of control. The T/C [10] was 101 % of control, the T/C (dose: 100.0 mg/kg/injection, schedule: Q04DX002 (ip), vehicle: Klucel (hydroxypropylcellulose) (HPC)) was 310 % of control and the T/C (dose: 100.0 mg/kg/injection, schedule: Q04DX002 (ip), vehicle: saline) was 105 % of control. For the same compound, the T/C (dose: 200.0 mg/kg/injection, schedule: Q01DX001 (ip), vehicle: saline with Tween-80) was 97 % of control, the T/C (dose: 200.0 mg/kg/injection, schedule: Q04DX002 (ip), vehicle: Klucel (hydroxypropylcellulose) (HPC)) was 90 % of control and the T/C (dose: 200.0 mg/kg/injection, schedule: Q04DX002 (ip), vehicle: saline) was 98 % of control. The T/C (dose: 400.0 mg/kg/injection, schedule: Q01DX001 (ip), vehicle: saline with Tween-80) was 104 % of control.

`Cc1cc(OCc2nc(N)nc(N)c2-c2ccc(Cl)c(Cl)c2)ccc1NC(=O)c1ccc(S(=O)(=O)F)cc1` was tested, and the T/C (dose: 75.0 mg/kg/injection, schedule: Q01DX001 (ip), vehicle: saline with Tween-80) was 100 % of control.

With `COc1cccc(C2NC(=O)CCC2N)c1OC` (stereo not drawn) the T/C [4] was 105 % of control, the T/C [6] was 102 % of control and the T/C [8] was 97 % of control.

`Cc1nc2c(NC(=O)CCl)nn(C)c2nc1C` was tested, and the T/C (dose: 50.0 mg/kg/injection, schedule: Q01DX009 (ip), vehicle: saline with Tween-80) was 98 % of control and the T/C [3] was 98 % of control.

With `CC1(CO)CC2CCC1C2` (stereo not drawn) the T/C [11] was 104 % of control, the T/C [12] was 108 % of control and the T/C [13] was 106 % of control.

`CC1CCCN(C(=S)[S-])C1.CC1CCCN(C(=S)[S-])C1.[Zn]` (stereo not drawn) was tested, and the T/C (dose: 1.25 mg/kg/injection, schedule: Q01DX009 (ip), vehicle: saline) was 88 % of control, the T/C (dose: 2.5 mg/kg/injection, schedule: Q01DX009 (ip), vehicle: saline) was 86 % of control and the T/C (dose: 2.5 mg/kg/injection, schedule: Q04DX003 (ip), vehicle: acetone) was 91 % of control. For the same compound, the T/C (dose: 5.0 mg/kg/injection, schedule: Q04DX003 (ip), vehicle: acetone) was 88 % of control, the T/C (dose: 10.0 mg/kg/injection, schedule: Q01DX001 (ip), vehicle: saline) was 96 % of control and the T/C (dose: 10.0 mg/kg/injection, schedule: Q04DX003 (ip), vehicle: acetone) was 88 % of control. The T/C (dose: 10.0 mg/kg/injection, schedule: Q04DX003 (ip), vehicle: saline) was 86 % of control.

With `Cc1cccc(N=Cc2cccc([N+](=O)[O-])c2)c1` the T/C (dose: 50.0 mg/kg/injection, schedule: Q04DX003 (ip), vehicle: Klucel (hydroxypropylcellulose) (HPC)) was 98 % of control, the T/C (dose: 100.0 mg/kg/injection, schedule: Q01DX001 (ip), vehicle: Klucel (hydroxypropylcellulose) (HPC)) was 100 % of control and the T/C [11] was 98 % of control. For the same compound, the T/C (dose: 200.0 mg/kg/injection, schedule: Q01DX001 (ip), vehicle: Klucel (hydroxypropylcellulose) (HPC)) was 94 % of control, the T/C [12] was 98 % of control and the T/C (dose: 400.0 mg/kg/injection, schedule: Q01DX001 (ip), vehicle: Klucel (hydroxypropylcellulose) (HPC)) was 92 % of control.

For `C(C=C(c1ccccc1)c1ccccc1)=C(c1ccccc1)c1ccccc1`, the T/C [5] was 97 % of control, the T/C [7] was 90 % of control and the T/C [9] was 92 % of control.

With `CCN(CC)c1ccc(NC(=S)Nc2cccc(C(F)(F)F)c2)c(C)c1` the T/C [10] was 93 % of control and the T/C [14] was 90 % of control.

With `Cc1cc(C)c([N+](=O)[O-])c(C)c1` the T/C [10] was 104 % of control, the T/C [14] was 97 % of control and the T/C [15] was 92 % of control.

In the case of `Brc1c(-c2ccccc2)cc(-c2ccccc2)cc1-c1ccccc1`, the T/C [10] was 93 % of control, the T/C [11] was 91 % of control and the T/C [14] was 93 % of control. The T/C [12] was 93 % of control, the T/C [15] was 96 % of control and the T/C [13] was 91 % of control.

`O=C(NCP(=O)(O)O)c1cccnc1` was tested, and the T/C (dose: 100.0 mg/kg/injection, schedule: Q04DX003 (ip), vehicle: saline sonified) was 94 % of control, the T/C (dose: 200.0 mg/kg/injection, schedule: Q04DX003 (ip), vehicle: saline sonified) was 100 % of control and the T/C (dose: 400.0 mg/kg/injection, schedule: Q04DX003 (ip), vehicle: saline sonified) was 102 % of control.
